This is an account of results in patent publication US10106524B2, “2,3,4,5-tetrahydropyridin-6-amine and 3,4-dihydro-2H-pyrrol-5-amine compound inhibitors of beta-secretase” (Janssen Pharmaceutica NV, priority 2015, dated 2018).

In assay [1] the target is T1, recombinant BACE1 protein (Homo sapiens, UniProt P56817).
T1 construct: recombinant BACE1 protein in a final concentration of 1 μg/ml
The assay can be described thus: BACE1 biochemical FRET based assay - Method 2. Particulars: BACE1 0.04 μg/ml, 450 minutes, 20 μM substrate, pH 5.0; read-out: Biochemical FRET based assay- Method 2 pIC50 (converted). An excerpt: BACE1 Biochemical FRET Based Assay
(§1) This assay is a Fluorescence Resonance Energy Transfer Assay (FRET) based assay. The substrate for this assay is an APP derived 13 amino acids peptide that contains the ‘Swedish’ Lys-Met/Asn-Leu mutation of the amyloid precursor protein (APP) beta-secretase cleavage site. This substrate also contains two fluorophores: (7-methoxycoumarin-4-yl) acetic acid (Mca) is a fluorescent donor with excitation wavelength at 320 nm and emission at 405 nm and 2,4-Dinitrophenyl (Dnp) is a proprietary quencher acceptor. […] Upon cleavage by BACE1, the fluorophore Mca is separated from the quenching group Dnp, restoring the full fluorescence yield of the donor. The increase in fluorescence is linearly related to the rate of proteolysis.
Briefly in a 384-well format recombinant BACE1 protein in a final concentration of 0.04 μg/ml is incubated for 450 minutes at room temperature with 20 μM substrate in incubation buffer (50 mM Citrate buffer pH 5.0, 0.05% PEG) in the presence of compound or DMSO. Next the amount of proteolysis is directly measured by fluorescence measurement (excitation at 320 nm and emission at 405 nm) at different incubation times (0, 30, 60, 90, 120 and 450 min). For every experiment a time curve (every 30 min between 0 min and 120 min) is used to determine the time where we find the lowest basal signal of the high control. The signal at this time (Tx) is used to subtract from the signal at 450 min. Results are expressed in RFU, as difference between T450 and Tx.
(§2) A best-fit curve is fitted by a minimum sum of squares method to the plot of % Controlmin versus compound concentration. From this an IC50 value (inhibitory concentration causing 50% inhibition of activity) can be obtained.

Assay [2] has as its system Abeta 1-42 produced and secreted by SKNBE2 cells expressing hAPP695. The assay is described as follows: Cellular αLisa assay in SKNBE2 cells - Abeta 42. Type of assay: cell-based, human. Particulars: Homo sapiens, incubated for 18 hours, read-out: Cellular αLisa assay in SKNBE2 cells Abeta 42 pIC50 (converted). On the procedure: Cellular αLisa Assay in SKNBE2 Cells
In two αLisa assays the levels of Abeta total and Abeta 1-42 produced and secreted into the medium of human neuroblastoma SKNBE2 cells are quantified. The assay is based on the human neuroblastoma SKNBE2 expressing the wild type Amyloid Precursor Protein (hAPP695). The compounds are diluted and added to these cells, incubated for 18 hours and then measurements of Abeta 1-42 and Abeta total are taken. Abeta total and Abeta 1-42 are measured by sandwich αLisa. αLisa is a sandwich assay using biotinylated antibody AbN/25 attached to streptavidin coated beads and antibody Ab4G8 or cAb42/26 conjugated acceptor beads for the detection of Abeta total and Abeta 1-42 respectively. In the presence of Abeta total or Abeta 1-42, the beads come into close proximity. The excitation of the donor beads provokes the release of singlet oxygen molecules that trigger a cascade of energy transfer in the acceptor beads, resulting in light emission. Light emission is measured after 1 hour incubation (excitation at […] and emission at 615 nm).
as §2

For assay [3], the target named is T2, recombinant BACE2 protein (Homo sapiens, UniProt Q9Y5Z0).
T2 construct: recombinant BACE2 protein in a final concentration of 0.4 μg/nil
T2 sequence (Q9Y5Z0 63-518): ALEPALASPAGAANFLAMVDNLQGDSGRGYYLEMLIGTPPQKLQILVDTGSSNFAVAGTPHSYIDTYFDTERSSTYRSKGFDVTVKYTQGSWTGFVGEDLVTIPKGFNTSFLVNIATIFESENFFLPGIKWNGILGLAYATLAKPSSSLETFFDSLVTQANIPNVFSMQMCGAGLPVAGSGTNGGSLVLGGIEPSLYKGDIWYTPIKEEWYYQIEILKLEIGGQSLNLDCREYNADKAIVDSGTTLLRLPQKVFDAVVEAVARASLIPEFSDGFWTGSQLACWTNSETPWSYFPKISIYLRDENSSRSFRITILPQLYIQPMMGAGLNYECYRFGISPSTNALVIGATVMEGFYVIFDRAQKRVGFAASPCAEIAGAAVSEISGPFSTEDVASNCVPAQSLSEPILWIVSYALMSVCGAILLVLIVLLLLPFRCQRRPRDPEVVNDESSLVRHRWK
The assay can be described thus: BACE2 biochemical FRET based assay. Particulars: BACE2 0.4 μg/nil, 450 minutes, 10 μM substrate, pH 5.0; read-out: Biochemical FRET based assay pIC50 (BACE2) (converted).
From the text: BACE2 Biochemical FRET Based Assay
as §1, with “assay” for “assay is an APP derived 13 amino acids peptide that”, “the beta-secretase,” for “BACE1,”
Briefly in a 384-well format recombinant BACE2 protein in a final concentration of […] is incubated for 450 minutes at room temperature with 10 μM substrate in incubation buffer (50 mM Citrate buffer pH 5.0, 0.05% PEG, no DMSO) in the absence or presence of compound. Next the amount of proteolysis is directly measured by fluorescence measurement at T=0 and T=450 (excitation at 320 nm and emission at 405 nm). Results are expressed in RFU (Relative Fluorescence Units), as difference between T450 and T0.
as §2

Bounds are passed on as bounds.

T1 sequence (P56817 46-501): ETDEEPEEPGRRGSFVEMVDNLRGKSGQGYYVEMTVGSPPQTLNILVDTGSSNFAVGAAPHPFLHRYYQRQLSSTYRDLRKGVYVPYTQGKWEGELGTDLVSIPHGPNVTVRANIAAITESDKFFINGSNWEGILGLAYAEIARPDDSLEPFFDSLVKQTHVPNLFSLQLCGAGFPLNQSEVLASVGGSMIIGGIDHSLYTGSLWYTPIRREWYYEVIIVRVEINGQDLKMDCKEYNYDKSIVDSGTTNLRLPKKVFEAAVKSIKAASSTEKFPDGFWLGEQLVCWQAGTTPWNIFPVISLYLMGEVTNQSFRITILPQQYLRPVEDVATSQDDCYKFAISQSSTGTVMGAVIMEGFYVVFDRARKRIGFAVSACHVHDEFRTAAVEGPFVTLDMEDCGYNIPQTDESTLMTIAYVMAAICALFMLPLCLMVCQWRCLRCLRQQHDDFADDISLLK

Turning to `CC1(c2cc(Nc3ncccc3C#N)ccc2F)N=C(N)CC1C(F)(F)F` (racemic) [Compound 22, (±)-2-[3-[(2S*,3R*)-5-amino-2-methyl-3-(trifluoromethyl)-3,4-dihydropyrrol-2-1]-4-fluoro-anilino]pyridine-3-carbonitrile], the IC50 in assay [1] is 3720 nM; in assay [2], 776 nM; in assay [3], no less than 10000 nM.
Consider `C[C@@]1(c2cc(NC(=O)c3ccc(C#N)cn3)ccc2F)N=C(N)C[C@@H]1C(F)(F)F` [Compound 25, N-[3-[(2R,3S)-5-amino-2-methyl-3-(trifluoromethyl)-3,4-dihydropyrrol-2-yl]-4-fluoro-phenyl]-5-cyano-pyridine-2-carboxamide], for which the IC50 was 182 nM in assay [1], 60.3 nM in assay [2] and 1070 nM in assay [3].
The corresponding values for `C[C@]1(c2cc(NC(=O)c3ccc(C#N)cn3)ccc2F)N=C(N)C[C@H]1C(F)(F)F` [Compound 26, N-[3-[(2S,3R)-5-amino-2-methyl-3-(trifluoromethyl)-3,4-dihydropyrrol-2-yl]-4-fluoro-phenyl]-5-cyano-pyridine-2-carboxamide] are greater than 10000 nM, greater than 8910 nM and greater than 10000 nM.
`COc1cnc(C(=O)Nc2ccc(F)c([C@]3(C)N=C(N)C[C@@H]3C(F)(F)F)c2)cn1` [Compound 27, N-[3-[(2R,3S)-5-amino-2-methyl-3-(trifluoromethyl)-3,4-dihydropyrrol-2-yl]-4-fluoro-phenyl]-5-methoxy-pyrazine-2-carboxamide]: the IC50 in assay [1] is 389 nM; in assay [2] it was 100 nM; in assay [3], 5890 nM.
The corresponding values for `COc1cccnc1Nc1ccc(F)c([C@]2(C)N=C(N)C[C@@H]2C(F)(F)F)c1` [Compound 28, N-[3-[(2R,3S)-5-amino-2-methyl-3-(trifluoromethyl)-3,4-dihydropyrrol-2-yl]-4-fluoro-phenyl]-3-methoxy-pyridin-2-amine] are 1200 nM, 347 nM and 617 nM.
For `COCCOc1cnc(C(=O)Nc2ccc(F)c([C@]3(C)N=C(N)C[C@@H]3C(F)(F)F)c2)cn1` [Compound 29, N-[3-[(2R,3S)-5-amino-2-methyl-3-(trifluoromethyl)-3,4-dihydropyrrol-2-yl]-4-fluoro-phenyl]-5-(2-methoxyethoxy)pyrazine-2-carboxamide] the same measures were 447 nM, 151 nM and greater than 20000 nM.
The corresponding values for `COCCOc1cnc(C(=O)Nc2ccc(F)c([C@@]3(C)N=C(N)C[C@H]3C(F)(F)F)c2)cn1` [Compound 30, N-[3-[(2S,3R)-5-amino-2-methyl-3-(trifluoromethyl)-3,4-dihydropyrrol-2-yl]-4-fluoro-phenyl]-5-(2-methoxyethoxy)pyrazine-2-carboxamide] are greater than 10000 nM, greater than 8910 nM and greater than 20000 nM.
Take `C[C@@]1(c2cc(NC(=O)c3cnc(OCC(F)(F)F)cn3)ccc2F)N=C(N)C[C@@H]1C(F)(F)F` [Compound 31, N-[3-[(2R,3S)-5-amino-2-methyl-3-(trifluoromethyl)-3,4-dihydropyrrol-2-yl]-4-fluoro-phenyl]-5-(2,2,2-trifluoroethoxy)pyrazine-2-carboxamide]: the IC50 in assay [1] is 457 nM; in assay [2], 257 nM; in assay [3], greater than 20000 nM.
As to `C[C@]1(c2cc(NC(=O)c3cnc(OCC(F)(F)F)cn3)ccc2F)N=C(N)C[C@H]1C(F)(F)F` [Compound 32, N-[3-[(2S,3R)-5-amino-2-methyl-3-(trifluoromethyl)-3,4-dihydropyrrol-2-yl]-4-fluoro-phenyl]-5-(2,2,2-trifluoroethoxy)pyrazine-2-carboxamide], the IC50 in assay [1] was greater than 10000 nM; in assay [2] it was greater than 8910 nM; in assay [3], greater than 20000 nM.
As for `COc1cnc(C(=O)Nc2ccc(F)c([C@@]3(C)N=C(N)C[C@H]3C(F)(F)F)c2)cn1` [Compound 34, N-[3-[(2S,3R)-5-amino-2-methyl-3-(trifluoromethyl)-3,4-dihydropyrrol-2-yl]-4-fluoro-phenyl]-5-methoxy-pyrazine-2-carboxamide], the IC50 in assay [1] is greater than 10000 nM.
On the same count and under the same terms, the same measure for `Cc1nc(C(=O)Nc2ccc(F)c([C@]3(C)N=C(N)C[C@@H]3C(F)(F)F)c2)co1` [Compound 35, N-[3-[(2R,3S)-5-amino-2-methyl-3-(trifluoromethyl)-3,4-dihydropyrrol-2-yl]-4-fluoro-phenyl]-2-methyl-oxazole-4-carboxamide]: greater than 10000 nM; for `Cc1nc(C(=O)Nc2ccc(F)c([C@@]3(C)N=C(N)C[C@H]3C(F)(F)F)c2)co1` [Compound 36, N-[3-[(2S,3R)-5-amino-2-methyl-3-(trifluoromethyl)-3,4-dihydropyrrol-2-yl]-4-fluoro-phenyl]-2-methyl-oxazole-4-carboxamide]: 1020 nM.
The same measure, in the same setting: next, `COc1cccnc1Nc1ccc(F)c([C@@]2(C)N=C(N)C[C@H]2C(F)(F)F)c1` [Compound 37, N-[3-[(2S,3R)-5-amino-2-methyl-3-(trifluoromethyl)-3,4-dihydropyrrol-2-yl]-4-fluoro-phenyl]-3-methoxy-pyridin-2-amine]: greater than 10000 nM; `C[C@]1(c2cc(Nc3ncccc3C#N)ccc2F)N=C(N)C[C@H]1C(F)(F)F` [Compound 38, 2-[3-[(2S,3R)-5-amino-2-methyl-3-(trifluoromethyl)-3,4-dihydropyrrol-2-yl]-4-fluoro-anilino]pyridine-3-carbonitrile]: greater than 10000 nM; `C[C@@]1(c2cc(Nc3ncccc3C#N)ccc2F)N=C(N)C[C@@H]1C(F)(F)F` [Compound 39, 2-[3-[(2R,3S)-5-amino-2-methyl-3-(trifluoromethyl)-3,4-dihydropyrrol-2-yl]-4-fluoro-anilino]pyridine-3-carbonitrile]: 2950 nM.
Same read-out and setting: next, `C[C@]1(c2cc(NC(=O)c3ccc(Br)cn3)ccc2F)N=C(N)C[C@H]1C(F)(F)F` [Compound 41, N-[3-[(2S,3R)-5-amino-2-methyl-3-(trifluoromethyl)-3,4-dihydropyrrol-2-yl]-4-fluoro-phenyl]-5-bromo-pyridine-2-carboxamide]: greater than 10000 nM.
